Measured values reported in patent US8288367B2, “Substituted estratriene derivatives as 17BETA HSD inhibitors” (Solvay Pharmaceuticals GmBH, priority 2006, dated 2012).

Legend:
[1] = target: T1, recombinant human 17β-HSD1 (Homo sapiens, UniProt P14061); experiment: Recombinant 17β-HSD1 assay (HPLC, 3H-estrone conversion); assay type: biochemical; conditions: 30 nM estrone, 1 mM NADPH, 30 min RT, read-out: Inhibition of rec. 17β-HSD1; for inhibition at 0.1 µM: 100 nM compound; for inhibition at 1 µM: 0.5 h, 1 μm compound
T1 construct: made in house; host or cells: Sf9 insect cells (baculovirus, Bac to Bac Expression System)
T1 sequence (P14061 1-328): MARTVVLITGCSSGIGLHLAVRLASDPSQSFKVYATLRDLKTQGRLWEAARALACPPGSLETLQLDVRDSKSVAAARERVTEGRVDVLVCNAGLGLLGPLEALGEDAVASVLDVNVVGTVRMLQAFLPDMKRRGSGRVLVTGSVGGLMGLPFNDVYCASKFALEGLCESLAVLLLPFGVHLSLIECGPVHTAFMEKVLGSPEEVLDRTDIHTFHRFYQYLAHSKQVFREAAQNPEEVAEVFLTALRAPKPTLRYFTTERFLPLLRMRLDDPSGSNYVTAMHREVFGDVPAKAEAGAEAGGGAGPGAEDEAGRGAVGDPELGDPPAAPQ
Method: 17β-HSD1 or 17β-HSD2 purification: Recombinant 17β-HSD1 and 17β-HSD2 baculoviruses were generated by the “Bac to Bac Expression System” (Invitrogen). Recombinant 17β-HSD1 or 17β-HSD2 bacmids were transfected to Sf9 insect cells using “Cellfectin Reagent” (Invitrogen). 60 h later cells were harvested; the fractions including 17β-HSD1 or 17β-HSD2 were isolated as described by Puranen et al. (1994). Aliquots were stored frozen until determination of enzymatic activity.
Recombinant 17β-HSD1 assay: Recombinant protein homogenate (0.1 μg/ml) was incubated in 20 mM KH2PO4 pH 7.4 reaction buffer, including protease inhibitors (Complete Protease Inhibitor Cocktail tablet, Roche Diagnostics, 1697498), with 30 nM estrone (Sigma, E9750) as substrate, 800 000 cpm/ml ^3H-estrone (PerkinElmer, NET319001MC) as a tracer substrate, and 1 mM NADPH (Sigma, N1630) as a co-factor for 30 min at RT, in the presence of potential inhibitors at concentrations of 1 μM or 0.1 μM. Inhibitor stock solutions were prepared in DMSO. The enzyme reaction was stopped by addition of trichloroacetic acid (1% final concentration). Samples were centrifuged in a microtiter plate at 4000 rpm for 10 min. Supernatants were applied to reverse phase HPLC on a Waters Symmetry C18 column, equipped with a Waters Sentry Guard column. Isocratic HPLC runs were performed at RT at a flow rate of 1 ml/min of acetonitrile:water 48:52 as running solvent. Radioactivity was monitored in the eluate by a Packard Flow Scintillation Analyzer. Total radioactivity for estrone and estradiol were determined in each sample and percent inhibition of estradiol conversion by the respective inhibitor was calculated
For the calculation of % inhibition the following formula was used:
[formula] Percent inhibition was calculated as follows: % inhibition=100−% conversion

[2] = target: T2, recombinant human 17β-HSD2 (Homo sapiens, UniProt P37059); experiment: Recombinant 17β-HSD2 assay (HPLC, 3H-estradiol conversion); assay type: biochemical; conditions: 50 nM estradiol, 1 mM β-NAD, read-out: Inhibition of rec. 17β-HSD2; for inhibition at 0.1 µM: 100 nM compound; for inhibition at 1 µM: 1 μm compound
T2 construct: made in house; host or cells: Sf9 insect cells (baculovirus, Bac to Bac Expression System)
T2 sequence (P37059 1-387): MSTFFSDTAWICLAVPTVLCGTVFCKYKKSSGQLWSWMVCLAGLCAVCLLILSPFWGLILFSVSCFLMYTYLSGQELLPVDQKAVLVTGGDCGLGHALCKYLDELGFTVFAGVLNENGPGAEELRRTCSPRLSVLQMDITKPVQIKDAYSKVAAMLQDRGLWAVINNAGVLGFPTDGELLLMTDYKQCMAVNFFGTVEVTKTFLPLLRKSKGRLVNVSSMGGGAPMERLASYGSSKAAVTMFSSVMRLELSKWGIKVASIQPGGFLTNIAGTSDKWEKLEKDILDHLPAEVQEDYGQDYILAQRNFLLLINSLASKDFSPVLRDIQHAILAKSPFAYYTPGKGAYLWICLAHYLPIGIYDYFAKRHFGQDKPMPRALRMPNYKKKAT
Method: 17β-HSD1 or 17β-HSD2 purification: Recombinant 17β-HSD1 and 17β-HSD2 baculoviruses were generated by the “Bac to Bac Expression System” (Invitrogen). Recombinant 17β-HSD1 or 17β-HSD2 bacmids were transfected to Sf9 insect cells using “Cellfectin Reagent” (Invitrogen). 60 h later cells were harvested; the fractions including 17β-HSD1 or 17β-HSD2 were isolated as described by Puranen et al. (1994). Aliquots were stored frozen until determination of enzymatic activity. Recombinant 17β-HSD2 assay: Recombinant 17β-HSD2 assay was performed as described for 17β-HSD1 but with following modifications: 6 μg/ml of recombinant protein homogenate, 50 nM Estradiol (Sigma, E8875) as a substrate, 800 000 cpm/ml ^3H-estradiol (PerkinElmer, NET317) as a tracer substrate and 1 mM β-NAD (Sigma N7004) as a co-factor were used. Total radioactivity for estrone and estradiol were determined in each sample and percent inhibition of estrone conversion by the respective inhibitor was calculated. For the calculation of % inhibition the following formula was used: [formula] Percent inhibition was calculated as follows: % inhibition=100−% conversion

Structure (SMILES) | inhibition at 0.1 µM [1] [%] | inhibition at 1 µM [1] [%] | inhibition at 0.1 µM [2] [%] | inhibition at 1 µM [2] [%]
Cc1cnc(NC(=O)CC[C@@H]2CC(=O)[C@@]3(C)CC[C@@H]4c5ccc(C(N)=O)cc5CC[C@H]4[C@H]23)s1 [Compound 3, 15β-{3-[(5-methyl-1,3-thiazol-2-yl)amino]-3-oxopropyl}-17-oxoestra-1(10),2,4-triene-3-carboxamide] | 20 | 74 | -1.8 | 8.6
Cc1cnc(NC(=O)CC[C@@H]2CC(=O)[C@@]3(C)CC[C@@H]4c5ccc(B(O)O)cc5CC[C@H]4[C@H]23)s1 [Compound 11, [15β-{3-[(5-methyl-1,3-thiazol-2-yl)amino]-3-oxopropyl}-17-oxoestra-1(10),2,4-trien-3-yl]boronic acid] | 62 | 88 | 4.2 | 5.5
C[C@]12CC[C@@H]3c4ccc(B(O)O)cc4CC[C@H]3[C@@H]1[C@@H](CCCC(=O)NCc1ccc(O)c(O)c1)CC2=O [Compound 12, [15alpha-{4-[(3,4-dihydroxybenzyl)amino]-4-oxobutyl}-17-oxoestra-1(10),2,4-trien-3-yl]boronic acid] | 32 | 57 | -5 | 6.2
Cc1cnc(NC(=O)CCC[C@H]2CC(=O)[C@@]3(C)CC[C@@H]4c5ccc(B(O)O)cc5CC[C@H]4[C@H]23)s1 [Compound 16, [15alpha-{4-[(5-methyl-1,3-thiazol-2-yl)amino]-4-oxobutyl}-17-oxoestra-1(10),2,4-trien-3-yl]boronic acid] | 30 | 59 | – | –
C[C@]12CC[C@@H]3c4ccc(B(O)O)cc4CC[C@H]3[C@@H]1[C@@H](CCCC(=O)NCc1ccc3c(c1)OCO3)CC2=O [Compound 19, [15alpha-{4-[(1,3-benzodioxol-5-ylmethyl)amino]-4-oxobutyl}-17-oxoestra-1(10),2,4-trien-3-yl]boronic acid] | 19 | 43 | -2.4 | 0.1
CN(Cc1ccccc1)C(=O)CCC[C@H]1CC(=O)[C@@]2(C)CC[C@@H]3c4ccc(B(O)O)cc4CC[C@H]3[C@H]12 [Compound 22, [15alpha-{4-[benzyl(methyl)amino]-4-oxobutyl}-17-oxoestra-1(10),2,4-trien-3-yl]boronic acid] | 37 | 60 | – | –
C[C@]12CC[C@@H]3c4ccc(B(O)O)cc4CC[C@H]3[C@@H]1[C@@H](CCCC(=O)NCc1ccccc1)CC2=O [Compound 23, [15alpha-[4-(benzylamino)-4-oxobutyl]-17-oxoestra-1(10),2,4-trien-3-yl]boronic acid] | 76 | 54 | 1.8 | 0.4
COc1ccc(CCN(C)C(=O)CCC[C@H]2CC(=O)[C@@]3(C)CC[C@@H]4c5ccc(B(O)O)cc5CC[C@H]4[C@H]23)cc1OC [Compound 26, [15alpha-(4-{[2-(3,4-dimethoxyphenyl)ethyl](methyl)amino}-4-oxobutyl)-17-oxoestra-1(10),2,4-trien-3-yl]boronic acid] | 21 | 41 | – | –
Cc1cccc2c(CCNC(=O)CC[C@@H]3CC(=O)[C@@]4(C)CC[C@@H]5c6ccc(B(O)O)cc6CC[C@H]5[C@H]34)c[nH]c12 [Compound 30, [15beta-(3-{[2-(7-methyl-1H-indol-3-yl)ethyl]amino}-3-oxopropyl)-17-oxoestra-1(10),2,4-trien-3-yl]boronic acid] | 50 | 56 | 1.3 | 6.3
Cc1cnc(NC(=O)CC[C@@H]2CC(=O)[C@@]3(C)CC[C@@H]4c5ccc(B(O)O)cc5CC[C@H]4[C@H]23)s1 [Compound 31, [15beta-{3-[(5-methyl-1,3-thiazol-2-yl)amino]-3-oxopropyl}-17-oxoestra-1(10),2,4-trien-3-yl]boronic acid] | 82 | 90 | 2.6 | 1.6
C[C@]12CC[C@@H]3c4ccc(B(O)O)cc4CC[C@H]3[C@@H]1[C@H](CCC(=O)NC1CCCCC1)CC2=O [Compound 32, [15beta-[3-(cyclohexylamino)-3-oxopropyl]-17-oxoestra-1(10),2,4-trien-3-yl]boronic acid] | 77 | 91 | 1.1 | 3.5
C[C@]12CC[C@@H]3c4ccc(B(O)O)cc4CC[C@H]3[C@@H]1[C@H](CCC(=O)N1CCOCC1)CC2=O [Compound 33, [15beta-(3-morpholin-4-yl-3-oxopropyl)-17-oxoestra-1(10),2,4-trien-3-yl]boronic acid] | 20 | 59 | -2.3 | -1.1
CN(Cc1ccccc1)C(=O)CC[C@@H]1CC(=O)[C@@]2(C)CC[C@@H]3c4ccc(B(O)O)cc4CC[C@H]3[C@H]12 [Compound 37, [15beta-{3-[benzyl(methyl)amino]-3-oxopropyl}-17-oxoestra-1(10),2,4-trien-3-yl]boronic acid] | 22 | 49 | – | –
COc1cc(Nc2ccc3c(c2)CC[C@H]2[C@@H]4[C@@H](CCCC(=O)N5CCOCC5)CC(=O)[C@@]4(C)CC[C@H]32)cc(C(F)(F)F)c1 [Compound 75, 3-{[3-methoxy-5-(trifluoromethyl)phenyl]amino}-15alpha-(4-morpholin-4-yl-4-oxobutyl)estra-1(10),2,4-trien-17-one] | 36 | 50 | – | –
C[C@]12CC[C@@H]3c4ccc(Nc5cccc(S(=O)(=O)N6CCOCC6)c5)cc4CC[C@H]3[C@@H]1[C@@H](CCCC(=O)N1CCOCC1)CC2=O [Compound 76, 15alpha-(4-morpholin-4-yl-4-oxobutyl)-3-{[3-(morpholin-4-ylsulfonyl)phenyl]amino}estra-1(10),2,4-trien-17-one] | 29 | 26 | – | –
C[C@]12CC[C@@H]3c4ccc(Nc5cnc6ccccc6c5)cc4CC[C@H]3[C@@H]1[C@@H](CCCC(=O)N1CCOCC1)CC2=O [Compound 83, 15alpha-(4-morpholin-4-yl-4-oxobutyl)-3-(quinolin-3-ylamino)estra-1(10),2,4-trien-17-one] | 19 | 50 | – | –
